Here are results for two compounds from paper PMC10610505, “Synthesis and Biological Evaluation of Some New 3-Aryl-2-thioxo-2,3-dihydroquinazolin-4(1H)-ones and 3-Aryl-2-(benzylthio)quinazolin-4(3H)-ones as Antioxidants; COX-2, LDHA, α-Glucosidase and α-Amylase Inhibitors; and Anti-Colon Carcinoma and Apoptosis-Inducing Agents” (Pharmaceuticals, 2023).

SMILES strings stand for the structures.

One assay concerns the target T1, COX-2 (Homo sapiens, UniProt P35354).
T1 construct: purchased Cayman Chemical Company 701080
T1 sequence (P35354 18-604): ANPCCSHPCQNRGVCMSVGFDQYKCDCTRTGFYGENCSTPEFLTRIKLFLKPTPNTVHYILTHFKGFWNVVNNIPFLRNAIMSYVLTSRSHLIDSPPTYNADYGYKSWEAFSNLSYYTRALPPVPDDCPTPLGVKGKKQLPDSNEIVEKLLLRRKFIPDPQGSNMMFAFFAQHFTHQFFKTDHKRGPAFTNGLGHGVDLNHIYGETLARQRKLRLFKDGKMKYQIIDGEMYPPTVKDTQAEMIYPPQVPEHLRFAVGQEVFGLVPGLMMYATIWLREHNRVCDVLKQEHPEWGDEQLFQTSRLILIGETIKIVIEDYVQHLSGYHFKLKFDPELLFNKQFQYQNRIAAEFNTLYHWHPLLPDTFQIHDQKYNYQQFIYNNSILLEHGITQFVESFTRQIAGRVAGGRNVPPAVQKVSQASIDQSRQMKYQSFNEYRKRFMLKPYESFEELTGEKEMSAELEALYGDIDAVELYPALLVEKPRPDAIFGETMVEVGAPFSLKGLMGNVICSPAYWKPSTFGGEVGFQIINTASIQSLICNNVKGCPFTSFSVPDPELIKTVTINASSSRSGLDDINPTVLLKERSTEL
The assay can be described thus: COX-2 inhibitory screening assay (Cayman kit). The assay is classed as biochemical. The following applies: for Increase in COX-2 inhibitory efficiency by duplicating the concentration: % inhibition at 0.200 mg/mL divided by % inhibition at 0.100 mg/mL; for inhibition at 100 µg/mL: at 0.100 mg/mL; for inhibition at 100 µg/mL / inhibition at 200 µg/mL: read-out: COX-2 mean % inhibition ± SD; for inhibition at 200 µg/mL: at 0.200 mg/mL. An outline of the steps: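 Human COX-2 with heme preincubated with compound 10 min at 37° C in Tris-HCl pH 8.0 with phenol and EDTA, then arachidonic acid added for 2 min at 37° C. PGF2α, formed by stannous chloride reduction, quantified by enzyme immunoassay at 410 nm; % inhibition versus untreated control.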

Another assay deals with LoVo carcinoma cells. Briefly: Cell cycle assay (PI flow cytometry), LoVo. Format: cell-based, human. Particulars: 50 µg/mL, 48 h. Here is the method:
In the current study, the cell cycle distribution of the treated HCT-116 and LoVo carcinoma cells with compounds 3a and 3f was assessed by labeling the cell’s DNA with PI stain in order to determine if the induction of apoptosis in carcinoma cells could be related to the cell cycle arrest (Figure 8A–F). The intensity of the PI stain is proportional to the cell’s DNA content (Figure 9). […] The ability of the tested compounds (3a and 3f) to block the cell cycle progression in LoVo and HCT-116 cells confirmed their anticancer potential against these colon carcinoma cell lines and could explain the mechanism of the observed cytotoxicity.
Changes in cell cycle distribution induced by compounds 3a and 3f were analyzed using a flow cytometric analysis according to Nicoletti et al. 1991 [108] using a Propidium Iodide Flow Cytometry Kit for Cell Cycle Analysis (Abcam-UK). HCT-116 and LoVo carcinoma cells (5 × 10^4 cells/mL) were treated with DMSO as a negative control, and compounds 3a and 3f (50 µg/mL), for 48 h. After the centrifugation of the treated cells at 1800 rpm for 5 min, the pellet was washed twice with PBS. Then, the cells were fixed by mixing […] of 90% cold ethanol, and stained with propidium iodide (PI) for 1 h at 37 °C. […] The stained cells were analyzed for their DNA content using a BD FACSC flow cytometer.
In general terms: Flow cytometry measures light scatter and fluorescence of single cells or particles in a stream.

On to `O=c1c2cc(Cl)ccc2[nH]c(=S)n1-c1ccc([N+](=O)[O-])cc1` [Compound 3f, 6-Chloro-3-(4-nitro-phenyl)-2-thioxo-2,3-dihydro-1H-quinazolin-4-one], for which, at COX-2, the “Increase in COX-2 inhibitory efficiency by duplicating the concentration” value is listed as 2.34 fold, the inhibition (usually how much of the control response was suppressed) at 100 µg/mL was determined as 11.4 ± 0.778% and the inhibition at 200 µg/mL is 26.8 ± 3.89%. Besides, the “Cells in G2/M phase (%DIP G2/M)” value in the assay with LoVo carcinoma cells is 29.16%.

Take `O=c1c2cc(Cl)ccc2[nH]c(=S)n1-c1cccc(C(F)(F)F)c1` [Compound 3a, 6-Chloro-2-thioxo-3-(3-trifluoromethyl-phenyl)-2,3-dihydro-1H-quinazolin-4-one]: at COX-2, the “Increase in COX-2 inhibitory efficiency by duplicating the concentration” value came out at 1.70 fold, the inhibition at 100 µg/mL turned out to be 57 ± 2.83% and the inhibition at 200 µg/mL is 97 ± 1.34%. Further, on COX-2 (mean ± SD of three replicates), the IC50 (commonly the concentration needed to halve the response being measured) was 281 µM. In the assay with LoVo carcinoma cells, the “Cells in G2/M phase (%DIP G2/M)” value is 22.64%.
